# Data: PubChem BioAssay (NCI)
#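 Cells were grown in 96-well plates and exposed to each compound for 48 hours at five concentrations; endpoints were interpolated linearly between bracketing concentrations, or set to the highest concentration if not reached. TGI marks complete inhibition of growth.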
# Legend:
# Test in all cases: NCI-60 cell line screen, 48 h
# 786-0 renal = tested on: 786-0 renal
# A498 renal = tested on: A498 renal
# A549 NSCLC = tested on: A549 NSCLC
# ACHN renal = tested on: ACHN renal
# BT-549 breast = tested on: BT-549 breast
# CAKI-1 renal = tested on: CAKI-1 renal
# CCRF-CEM leukemia = tested on: CCRF-CEM leukemia
# COLO 205 colon = tested on: COLO 205 colon
# DU-145 prostate = tested on: DU-145 prostate
# EKVX NSCLC = tested on: EKVX NSCLC
# HCT-116 colon = tested on: HCT-116 colon
# HCT-15 colon = tested on: HCT-15 colon
# HL-60(TB) leukemia = tested on: HL-60(TB) leukemia
# HOP-62 NSCLC = tested on: HOP-62 NSCLC
# HOP-92 NSCLC = tested on: HOP-92 NSCLC
# HS 578T breast = tested on: HS 578T breast
# HT29 colon = tested on: HT29 colon
# IGROV1 ovarian = tested on: IGROV1 ovarian
# K-562 leukemia = tested on: K-562 leukemia
# KM12 colon = tested on: KM12 colon
# LOX IMVI melanoma = tested on: LOX IMVI melanoma
# M14 melanoma = tested on: M14 melanoma
# MALME-3M melanoma = tested on: MALME-3M melanoma
# MCF7 breast = tested on: MCF7 breast
# MDA-MB-231 breast = tested on: MDA-MB-231 breast
# MDA-MB-435 = tested on: MDA-MB-435
# MDA-N = tested on: MDA-N
# MOLT-4 leukemia = tested on: MOLT-4 leukemia
# NCI-H226 lung = tested on: NCI-H226 lung
# NCI-H23 lung = tested on: NCI-H23 lung
# NCI-H522 lung = tested on: NCI-H522 lung
# NCI/ADR-RES ovarian = tested on: NCI/ADR-RES ovarian
# OVCAR-3 ovarian = tested on: OVCAR-3 ovarian
# OVCAR-4 ovarian = tested on: OVCAR-4 ovarian
# OVCAR-5 ovarian = tested on: OVCAR-5 ovarian
# OVCAR-8 ovarian = tested on: OVCAR-8 ovarian
# PC-3 prostate = tested on: PC-3 prostate
# RPMI-8226 leukemia = tested on: RPMI-8226 leukemia
# RXF 393 renal = tested on: RXF 393 renal
# SF-268 CNS = tested on: SF-268 CNS
# SF-295 CNS = tested on: SF-295 CNS
# SF-539 CNS = tested on: SF-539 CNS
# SK-MEL-2 melanoma = tested on: SK-MEL-2 melanoma
# SK-MEL-28 melanoma = tested on: SK-MEL-28 melanoma
# SK-MEL-5 melanoma = tested on: SK-MEL-5 melanoma
# SK-OV-3 ovarian = tested on: SK-OV-3 ovarian
# SN12C renal = tested on: SN12C renal
# SNB-19 CNS = tested on: SNB-19 CNS
# SNB-75 CNS = tested on: SNB-75 CNS
# SR leukemia = tested on: SR leukemia
# SW-620 colon = tested on: SW-620 colon
# T-47D breast = tested on: T-47D breast
# TK-10 renal = tested on: TK-10 renal
# U251 CNS = tested on: U251 CNS
# UACC-257 melanoma = tested on: UACC-257 melanoma
# UACC-62 melanoma = tested on: UACC-62 melanoma
# UO-31 renal = tested on: UO-31 renal
# NCI-H460 lung = tested on: NCI-H460 lung
smiles,measurement,setting,value
NCCNS(=O)(=O)c1ccc(N)cc1,TGI,786-0 renal,> 100 µM
same,TGI,A498 renal,> 100 µM
same,TGI,A549 NSCLC,> 100 µM
same,TGI,ACHN renal,> 100 µM
same,TGI,BT-549 breast,> 100 µM
same,TGI,CAKI-1 renal,> 100 µM
same,TGI,CCRF-CEM leukemia,> 100 µM
same,TGI,COLO 205 colon,> 100 µM
same,TGI,DU-145 prostate,> 100 µM
same,TGI,EKVX NSCLC,> 100 µM
same,TGI,HCT-116 colon,> 100 µM
same,TGI,HCT-15 colon,> 100 µM
same,TGI,HL-60(TB) leukemia,41.5 µM
same,TGI,HOP-62 NSCLC,> 100 µM
same,TGI,HOP-92 NSCLC,> 100 µM
same,TGI,HS 578T breast,> 100 µM
same,TGI,HT29 colon,> 100 µM
same,TGI,IGROV1 ovarian,> 100 µM
same,TGI,K-562 leukemia,> 100 µM
same,TGI,KM12 colon,> 100 µM
same,TGI,LOX IMVI melanoma,> 100 µM
same,TGI,M14 melanoma,> 100 µM
same,TGI,MALME-3M melanoma,> 100 µM
same,TGI,MCF7 breast,> 100 µM
same,TGI,MDA-MB-231 breast,> 100 µM
same,TGI,MDA-MB-435,> 100 µM
same,TGI,MDA-N,> 100 µM
same,TGI,MOLT-4 leukemia,> 100 µM
same,TGI,NCI-H226 lung,> 100 µM
same,TGI,NCI-H23 lung,> 100 µM
same,TGI,NCI-H522 lung,> 100 µM
same,TGI,NCI/ADR-RES ovarian,> 100 µM
same,TGI,OVCAR-3 ovarian,> 100 µM
same,TGI,OVCAR-4 ovarian,> 100 µM
same,TGI,OVCAR-5 ovarian,> 100 µM
same,TGI,OVCAR-8 ovarian,> 100 µM
same,TGI,PC-3 prostate,> 100 µM
same,TGI,RPMI-8226 leukemia,> 100 µM
same,TGI,RXF 393 renal,> 100 µM
same,TGI,SF-268 CNS,> 100 µM
same,TGI,SF-295 CNS,> 100 µM
same,TGI,SF-539 CNS,> 100 µM
same,TGI,SK-MEL-2 melanoma,> 100 µM
same,TGI,SK-MEL-28 melanoma,> 100 µM
same,TGI,SK-MEL-5 melanoma,> 100 µM
same,TGI,SK-OV-3 ovarian,> 100 µM
same,TGI,SN12C renal,> 100 µM
same,TGI,SNB-19 CNS,> 100 µM
same,TGI,SNB-75 CNS,> 100 µM
same,TGI,SR leukemia,> 100 µM
same,TGI,SW-620 colon,> 100 µM
same,TGI,T-47D breast,> 100 µM
same,TGI,TK-10 renal,> 100 µM
same,TGI,U251 CNS,> 100 µM
same,TGI,UACC-257 melanoma,> 100 µM
same,TGI,UACC-62 melanoma,> 100 µM
same,TGI,UO-31 renal,> 100 µM
COc1cc2c3c(c1O)-c1c(ccc(OC)c1OC)CC3N(C)CC2 (centres undefined),TGI,786-0 renal,> 100 µM
same,TGI,A498 renal,> 100 µM
same,TGI,A549 NSCLC,> 100 µM
same,TGI,ACHN renal,> 100 µM
same,TGI,BT-549 breast,> 100 µM
same,TGI,CAKI-1 renal,> 100 µM
same,TGI,CCRF-CEM leukemia,> 100 µM
same,TGI,COLO 205 colon,> 100 µM
same,TGI,DU-145 prostate,> 100 µM
same,TGI,EKVX NSCLC,> 100 µM
same,TGI,HCT-116 colon,> 100 µM
same,TGI,HCT-15 colon,> 100 µM
same,TGI,HL-60(TB) leukemia,> 100 µM
same,TGI,HOP-92 NSCLC,> 100 µM
same,TGI,HS 578T breast,> 100 µM
same,TGI,HT29 colon,> 100 µM
same,TGI,IGROV1 ovarian,> 100 µM
same,TGI,KM12 colon,> 100 µM
same,TGI,LOX IMVI melanoma,> 100 µM
same,TGI,M14 melanoma,> 100 µM
same,TGI,MCF7 breast,> 100 µM
same,TGI,MDA-MB-231 breast,> 100 µM
same,TGI,MDA-MB-435,> 100 µM
same,TGI,MDA-N,> 100 µM
same,TGI,MOLT-4 leukemia,> 100 µM
same,TGI,NCI-H226 lung,> 100 µM
same,TGI,NCI-H23 lung,> 100 µM
same,TGI,NCI-H460 lung,> 100 µM
same,TGI,NCI-H522 lung,> 100 µM
same,TGI,NCI/ADR-RES ovarian,> 100 µM
same,TGI,OVCAR-3 ovarian,> 100 µM
same,TGI,OVCAR-4 ovarian,> 100 µM
same,TGI,OVCAR-5 ovarian,> 100 µM
same,TGI,OVCAR-8 ovarian,> 100 µM
same,TGI,PC-3 prostate,> 100 µM
same,TGI,RPMI-8226 leukemia,> 100 µM
same,TGI,RXF 393 renal,> 100 µM
same,TGI,SF-268 CNS,> 100 µM
same,TGI,SF-295 CNS,> 100 µM
same,TGI,SF-539 CNS,> 100 µM
same,TGI,SK-MEL-2 melanoma,> 100 µM
same,TGI,SK-MEL-5 melanoma,> 100 µM
same,TGI,SK-OV-3 ovarian,> 100 µM
same,TGI,SN12C renal,> 100 µM
same,TGI,SNB-19 CNS,> 100 µM
same,TGI,SNB-75 CNS,> 100 µM
same,TGI,SR leukemia,> 100 µM
same,TGI,SW-620 colon,> 100 µM
same,TGI,T-47D breast,> 100 µM
same,TGI,TK-10 renal,> 100 µM
same,TGI,U251 CNS,> 100 µM
same,TGI,UACC-257 melanoma,> 100 µM
same,TGI,UACC-62 melanoma,> 100 µM
same,TGI,UO-31 renal,> 100 µM
CC(C)(C)C1=NC(=P(c2ccccc2)(c2ccccc2)c2ccccc2)C(=O)O1,TGI,786-0 renal,> 100 µM
same,TGI,A498 renal,> 100 µM
same,TGI,A549 NSCLC,> 100 µM
same,TGI,ACHN renal,> 100 µM
same,TGI,BT-549 breast,> 100 µM
same,TGI,CAKI-1 renal,> 100 µM
same,TGI,CCRF-CEM leukemia,> 100 µM
same,TGI,COLO 205 colon,> 100 µM
same,TGI,DU-145 prostate,> 100 µM
same,TGI,EKVX NSCLC,> 100 µM
same,TGI,HCT-116 colon,> 100 µM
same,TGI,HL-60(TB) leukemia,> 100 µM
same,TGI,HOP-62 NSCLC,> 100 µM
same,TGI,HOP-92 NSCLC,> 100 µM
same,TGI,HS 578T breast,> 100 µM
same,TGI,HT29 colon,> 100 µM
same,TGI,IGROV1 ovarian,> 100 µM
same,TGI,K-562 leukemia,> 100 µM
same,TGI,KM12 colon,> 100 µM
same,TGI,LOX IMVI melanoma,> 100 µM
same,TGI,M14 melanoma,> 100 µM
same,TGI,MALME-3M melanoma,> 100 µM
same,TGI,MCF7 breast,> 100 µM
same,TGI,MDA-MB-231 breast,> 100 µM
same,TGI,MDA-MB-435,> 100 µM
same,TGI,MDA-N,> 100 µM
same,TGI,MOLT-4 leukemia,> 100 µM
same,TGI,NCI-H226 lung,> 100 µM
same,TGI,NCI-H23 lung,> 100 µM
same,TGI,NCI-H522 lung,90.8 µM
same,TGI,NCI/ADR-RES ovarian,> 100 µM
same,TGI,OVCAR-5 ovarian,> 100 µM
same,TGI,OVCAR-8 ovarian,> 100 µM
same,TGI,PC-3 prostate,> 100 µM
same,TGI,RPMI-8226 leukemia,> 100 µM
same,TGI,RXF 393 renal,> 100 µM
same,TGI,SF-268 CNS,> 100 µM
same,TGI,SF-295 CNS,> 100 µM
same,TGI,SK-MEL-2 melanoma,> 100 µM
same,TGI,SK-MEL-28 melanoma,> 100 µM
same,TGI,SK-MEL-5 melanoma,> 100 µM
same,TGI,SK-OV-3 ovarian,> 100 µM
same,TGI,SN12C renal,> 100 µM
same,TGI,SNB-19 CNS,> 100 µM
same,TGI,SNB-75 CNS,56.5 µM
same,TGI,SR leukemia,> 100 µM
same,TGI,SW-620 colon,> 100 µM
same,TGI,T-47D breast,> 100 µM
same,TGI,TK-10 renal,> 100 µM
same,TGI,U251 CNS,> 100 µM
same,TGI,UACC-257 melanoma,> 100 µM
same,TGI,UACC-62 melanoma,> 100 µM
same,TGI,UO-31 renal,> 100 µM
